Patent publication EP0428132A1, “Pradimicin derivatives” (Bristol-Myers Squibb Company, priority 1989, dated 1991)
Converted amounts (≈) assume the structure as drawn. Where two headings read alike, the source gives them in different places. Marks after values point to notes of the source that are not given here.

What was measured:
[1] = tested on: Trichophyton mentagrophytes A26771; experiment: In vitro antifungal activity, serial agar dilution method (Table 1a); assay type: cell-based
Experimental: (§1) The inoculum size was adjusted to 10⁶ cells/ml, and a volume of approximately 0.003 ml of fungal suspension was applied to the surface of the antibiotic containing agar plates with a multiinoculator. After incubation, the lowest concentration of antibiotic causing virtually complete inhibition of fungal growth was determined as the minimum inhibitory concentration (MIC).

[2] = tested on: Candida tropicalis A25809; experiment: as above; assay type: cell-based; conditions: YM agar (pH 7.0, Difco), 30°C for 2 days (yeast) or 4 days (filamentous fungi), read-out: MICs, Candida tropicalis A25809
Experimental: as §1

[3] = tested on: Saccharomyces cerevisiae A25803; experiment: as above; assay type: cell-based; conditions: YM agar (pH 7.0, Difco), 30°C for 2 days (yeast) or 4 days (filamentous fungi), read-out: MICs, Saccharomyces cerevisiae A25803
Experimental: as §1

[4] = tested on: Cryptococcus neoformans A15053; experiment: as above; assay type: cell-based
Experimental: as §1

[5] = tested on: Microsporum gypseum WW1107; experiment: as above; assay type: cell-based; conditions: Nannizzia gypsea, YM agar (pH 7.0, Difco), 30°C for 2 days (yeast) or 4 days (filamentous fungi), read-out: MICs, Microsporum gypseum WW1107
Experimental: as §1

[6] = tested on: Trichophyton rubrum A26761; experiment: as above; assay type: cell-based; conditions: A26761, pH 7, read-out: MICs, Trichophyton rubrum A26761
Experimental: as §1

[7] = tested on: Candida paratropicalis A25825; experiment: as above; assay type: cell-based
Experimental: as §1

[8] = tested on: Candida tropicalis A25812; experiment: as above; assay type: cell-based
Experimental: as §1

Candida albicans A9540 [9] = experiment: as above; assay type: cell-based
Experimental: as §1

[10] = tested on: Candida pseudotropicalis A25802; experiment: as above; assay type: cell-based; conditions: Kluyveromyces marxianus, YM agar (pH 7.0, Difco), 30°C for 2 days (yeast) or 4 days (filamentous fungi), read-out: MICs, Candida pseudotropicalis A25802
Experimental: as §1

[11] = tested on: Microsporum canis WW10218; experiment: as above; assay type: cell-based; conditions: WW10218, pH 7, read-out: MICs, Microsporum canis WW10218
Experimental: as §1

Candida albicans A25578 = experiment: as above; assay type: cell-based
Experimental: as §1

Candida albicans A9540 [12] = experiment: Intravenous Candida albicans infection mouse model, Table 2 part B; assay type: in vivo, mice
Experimental: Several compounds were also evaluated in an intravenous Candida albicans […] infection mouse model. The test organism was suspended in saline approximately 10 times the median lethal dose of the fungus (10⁶ cells/mouse) were used to infect intravenously male ICR mice weighing 20 to 24 g. Groups of five mice at each dose level were given the test compounds intravenously or intramuscularly. The 50% protective dose (PD₅₀) was calculated from survival rates recorded 20 or 21 days after the fungal challenge. […]

[13] = Water solubility, protocol I (PBS, HPLC); assay type: physicochemical; conditions: Method I: PBS without CaCl₂ and MgCl₂.6H₂O
Experimental: The supernatant (2 µL) was analyzed by HPLC using the conditions specified for each compound in the Experimental Section. […] When not soluble, an additional amount of PBS (x µL) was added, sonicated, and centrifuged. When visibly soluble, the solution (2 µL) was injected to HPLC and the peak area was used for the known concentration of the sample.

M. gypseum A26835 = experiment: In vitro antifungal activity, serial agar dilution method (Table 1a, footnote strain 4); assay type: cell-based, Microsporum gypseum; conditions: Nannizzia gypsea
Experimental: as §1

M. canis A26834 = experiment: In vitro antifungal activity, serial agar dilution method (Table 1a, footnote strain 5); assay type: cell-based; conditions: Microsporum canis, A26834, pH 7, read-out: MICs, M. canis A26834
Experimental: as §1

[14] = A26771, YM agar (pH 7.0, Difco), 30°C for 2 days (yeast) or 4 days (filamentous fungi), read-out: MICs, Trichophyton mentagrophytes A26771
[15] = A15053, YM agar (pH 7.0, Difco), 30°C for 2 days (yeast) or 4 days (filamentous fungi), read-out: MICs, Cryptococcus neoformans A15053
[16] = YM agar (pH 7.0, Difco), 30°C for 2 days (yeast) or 4 days (filamentous fungi), read-out: MICs, Candida paratropicalis A25825
[17] = A25812, YM agar (pH 7.0, Difco), 30°C for 2 days (yeast) or 4 days (filamentous fungi), read-out: MICs, Candida tropicalis A25812
[18] = A9540, YM agar (pH 7.0, Difco), 30°C for 2 days (yeast) or 4 days (filamentous fungi), read-out: MICs, Candida albicans A9540
[19] = A25578, YM agar (pH 7.0, Difco), 30°C for 2 days (yeast) or 4 days (filamentous fungi), read-out: MICs, Candida albicans A25578
[20] = Part B: route IV, at 1 and 3.5 hrs after infection and twice on the following day, 21 days after fungal challenge, method of Spearman-Karber, male ICR mice

Structure (SMILES)	MIC [1, 14]	MIC [2]	MIC [3]	MIC [4, 15]	MIC [5]	MIC [6]	MIC [7, 16]	MIC [8, 17]	MIC (Candida albicans A9540 [9]; [18])	MIC [10]	MIC [11]	MIC (Candida albicans A25578; [19])	solubility [13]	PD₅₀ (Candida albicans A9540 [12]; mouse, in vivo)	further results
COc1cc(O)c2c(c1)C(=O)c1c(cc3c(c1O)-c1c(cc(C)c(C(=O)N[C@H](C)C(=O)O)c1O)[C@H](O[C@@H]1O[C@H](C)[C@H](N(C)CC(N)=O)[C@H](O)[C@H]1O)[C@H]3O)C2=O [Ex. 5, N-(carbamoylmethyl) pradimicin B]	1.6 mg/L (≈ 2.09 µM)	0.8 mg/L (≈ 1.04 µM)	0.8 mg/L (≈ 1.04 µM)	0.8 mg/L (≈ 1.04 µM)	3.2 mg/L (≈ 4.18 µM)	1.6 mg/L (≈ 2.09 µM)	3.2 mg/L (≈ 4.18 µM)	3.2 mg/L (≈ 4.18 µM)	3.2 mg/L (≈ 4.18 µM)	0.8 mg/L (≈ 1.04 µM)	1.6 mg/L (≈ 2.09 µM)	0.8 mg/L (≈ 1.04 µM)	> 4 mg/mL	–	PD₅₀ (Candida albicans A9540 [12]; [20]): >50** mg/kg
CNC(=O)N(C)[C@@H]1[C@H](O)[C@@H](O)[C@H](O[C@H]2c3cc(C)c(C(=O)N[C@H](C)C(=O)O)c(O)c3-c3c(cc4c(c3O)C(=O)c3cc(OC)cc(O)c3C4=O)[C@@H]2O)O[C@@H]1C [Ex. 18, N-(N-methylcarbamoyl) pradimicin B]	–	–	–	–	–	> 50 mg/L	–	–	–	3.2 mg/L (≈ 4.18 µM)	–	–	4 mg/mL (≈ 5220 µM)	–	MIC ([1]; A26771, pH 7, read-out: MICs, Trichophyton mentagrophytes A26771): > 50 mg/L; MIC ([4]; A15053, pH 7, read-out: MICs, Cryptococcus neoformans A15053): > 50 mg/L; MIC ([7]; pH 7, read-out: MICs, Candida paratropicalis A25825): 25 mg/L (≈ 32.6 µM); MIC ([8]; A25812, pH 7, read-out: MICs, Candida tropicalis A25812): 25 mg/L (≈ 32.6 µM); MIC (Candida albicans A9540 [9]; A9540, pH 7, read-out: MICs, Candida albicans A9540): 25 mg/L (≈ 32.6 µM); MIC (Candida albicans A25578; A25578, pH 7, read-out: MICs, Candida albicans A25578): 25 mg/L (≈ 32.6 µM); MIC (M. gypseum A26835; A26835, pH 7, read-out: MICs, M. gypseum A26835): > 50 mg/L; MIC (M. canis A26834): > 50 mg/L
CN[C@@H]1[C@H](O)[C@@H](O)[C@H](O[C@H]2c3cc(C)c(C(=O)N[C@H](C)C(=O)O)c(O)c3-c3c(cc4c(c3O)C(=O)c3cc(OC)cc(O)c3C4=O)[C@@H]2O)O[C@@H]1C [Pradimicin B, reference compound]	3.2 mg/L (≈ 4.52 µM)	0.8 mg/L (≈ 1.13 µM)	0.8 mg/L (≈ 1.13 µM)	0.8 mg/L (≈ 1.13 µM)	12.5 mg/L (≈ 17.6 µM)	3.2 mg/L (≈ 4.52 µM)	3.2 mg/L (≈ 4.52 µM)	3.2 mg/L (≈ 4.52 µM)	3.2 mg/L (≈ 4.52 µM)	0.8 mg/L (≈ 1.13 µM)	3.2 mg/L (≈ 4.52 µM)	1.6 mg/L (≈ 2.26 µM)	0.07 mg/mL (≈ 98.8 µM)	–	PD₅₀ (Candida albicans A9540 [12]; Part B: route IM, at 1 and 3.5 hrs after infection and twice on the following day, 21 days after fungal challenge, method of Spearman-Karber, male ICR mice): >50 mg/kg; PD₅₀ (Candida albicans A9540 [12]; [20]): 32 mg/kg
COc1cc(O)c2c(c1)C(=O)c1c(cc3c(c1O)-c1c(cc(C)c(C(=O)N[C@H](C)C(=O)O)c1O)[C@H](O[C@@H]1O[C@H](C)[C@H](N(C)Cc4ccccc4)[C@H](O[C@@H]4OC[C@@H](O)[C@H](O)[C@H]4O)[C@H]1O)[C@H]3O)C2=O [Ex. 24, N-(Benzyl) pradimicin A]	3.2 mg/L (≈ 3.44 µM)	–	–	1.6 mg/L (≈ 1.72 µM)	–	3.2 mg/L (≈ 3.44 µM)	> 50 mg/L	> 50 mg/L	> 50 mg/L	12.5 mg/L (≈ 13.4 µM)	–	> 50 mg/L	–	–	MIC (M. gypseum A26835; A26835, strain per footnote **4, YM agar (pH 7.0, Difco), 30°C for 2 days (yeast) or 4 days (filamentous fungi), read-out: MICs, M. gypseum A26835): 50 mg/L (≈ 53.7 µM); MIC (M. canis A26834): 25 mg/L (≈ 26.9 µM)
COc1cc(O)c2c(c1)C(=O)c1c(cc3c(c1O)-c1c(cc(C)c(C(=O)N[C@H](C)C(=O)O)c1O)[C@H](O[C@@H]1O[C@H](C)[C@H](N(C)CC(=O)O)[C@H](O)[C@H]1O)[C@H]3O)C2=O [Ex. 4, N-carboxymethyl pradimicin B]	12.5 mg/L (≈ 16.3 µM)	1.6 mg/L (≈ 2.09 µM)	0.8 mg/L (≈ 1.04 µM)	1.6 mg/L (≈ 2.09 µM)	25 mg/L (≈ 32.6 µM)	12.5 mg/L (≈ 16.3 µM)	3.2 mg/L (≈ 4.17 µM)	3.2 mg/L (≈ 4.17 µM)	3.2 mg/L (≈ 4.17 µM)	1.6 mg/L (≈ 2.09 µM)	6.3 mg/L (≈ 8.22 µM)	1.6 mg/L (≈ 2.09 µM)	> 10 mg/mL	>50** mg/kg	–
C=CCN(C)[C@@H]1[C@H](O)[C@@H](O)[C@H](O[C@H]2c3cc(C)c(C(=O)N[C@H](C)C(=O)O)c(O)c3-c3c(cc4c(c3O)C(=O)c3cc(OC)cc(O)c3C4=O)[C@@H]2O)O[C@@H]1C [Ex. 21, N-(Allyl) pradimicin B]	3.2 mg/L (≈ 4.27 µM)	1.6 mg/L (≈ 2.14 µM)	0.8 mg/L (≈ 1.07 µM)	1.6 mg/L (≈ 2.14 µM)	12.5 mg/L (≈ 16.7 µM)	3.2 mg/L (≈ 4.27 µM)	6.3 mg/L (≈ 8.41 µM)	6.3 mg/L (≈ 8.41 µM)	3.2 mg/L (≈ 4.27 µM)	0.8 mg/L (≈ 1.07 µM)	3.2 mg/L (≈ 4.27 µM)	0.8 mg/L (≈ 1.07 µM)	2 mg/mL (≈ 2670 µM)	>50 mg/kg	–
C#CCN(C)[C@@H]1[C@H](O)[C@@H](O)[C@H](O[C@H]2c3cc(C)c(C(=O)N[C@H](C)C(=O)O)c(O)c3-c3c(cc4c(c3O)C(=O)c3cc(OC)cc(O)c3C4=O)[C@@H]2O)O[C@@H]1C [Ex. 23, N-(Propargyl) pradimicin B]	25 mg/L (≈ 33.5 µM)	1.6 mg/L (≈ 2.14 µM)	0.8 mg/L (≈ 1.07 µM)	1.6 mg/L (≈ 2.14 µM)	50 mg/L (≈ 67 µM)	25 mg/L (≈ 33.5 µM)	> 50 mg/L	50 mg/L (≈ 67 µM)	50 mg/L (≈ 67 µM)	1.6 mg/L (≈ 2.14 µM)	25 mg/L (≈ 33.5 µM)	1.6 mg/L (≈ 2.14 µM)	0.5 mg/mL (≈ 670 µM)	>50 mg/kg	–
